Legend:
[1] = test system: human 1299 cells (NCI-H1299) cultured within rat decellularized biomatrices; assay: Cisplatin treatment of tissue constructs: tumor size and live cells; type: cell-based; conditions: 50 μM Cisplatin from day 4 of culture
Method: A simplified, small, closed-system bioreactor was set up in an incubator for lung cell culture on the lung biomatrix (FIG. 1B). A custom-designed 500-mL glass bottle was used with three holes in the cap fitted with a female Luer thread-style panel (Cole-Parmer), one for the pulmonary artery cannula, one for the trachea cannula, and one for circulation of medium from the bottle. Medium was constantly circulated with the help of a Masterflex pump (Cole-Parmer) through a 10-foot length of silicone oxygenator tubing wrapped around a mesh of wire solenoid (Cole-Parmer). The medium was perfused through the pulmonary artery cannula into lungs at a flow rate of 6 mL/min. For controlled flow through the pulmonary artery, it was connected to a three-way stopcock (Smith Medical, Dublin, Ohio). The bottle was filled with 150 mL of complete medium or serum-free medium, which was circulated through the oxygenator tubing to prevent air bubbles. […] Treatment (Tx) with 50 μM Cisplatin was commenced at day 4 of culture, and treated tissue constructs and untreated controls were assessed and compared at days 4, 8, 11, and 14 of culture (FIGS. 11 and 12). […]

[2] = test system: human 1299 cells (NCI-H1299) cultured within rat decellularized biomatrices; assay: Ki-67 and TUNEL staining of treated and untreated lung tissue constructs; type: cell-based; conditions: 50 μM Cisplatin from day 4 of culture; compared with untreated constructs (FIG. 14)
Description: Lobes of same lungs were dissected at day 0 (day of seeding cancer cells onto biomatrix), day 3, day 7, and day 11 or day 14 (or both) in sterile conditions under the culture hood to see the progression of tumor growth. After lobectomy, lung tissues were placed in 70% ethanol and analyzed in the Pathology Core Laboratory at The Methodist Hospital Research Institute. Briefly, the tissues were fixed in 10% formalin overnight, processed, and embedded in paraffin. Embedded tissues were cut into […] slices and mounted on slides, and the paraffin was removed; antigen retrieval was performed with antigen unmasking solution (H-3300; Vector Laboratories, Burlingame, Calif.) in a steamer for 20 minutes. Slides were cooled for 20 minutes at room temperature, washed in PBS, and stained with hematoxylin and eosin, Movat Pentachrome (American MasterTech Scientific, Lodi, Calif.), elastin (VVG kit, Ventana Nexus, Tucson, Ariz.), and other markers following the standard protocol. Stained slides were examined by expert board-certified pathologists, and images were captured using a microscope (Olympus, Center Valley, Pa.). […] Treatment (Tx) with 50 μM Cisplatin was commenced at day 4 of culture, and treated tissue constructs and untreated controls were assessed and compared at days 4, 8, 11, and 14 of culture (FIGS. 11 and 12). […]

[3] = test system: human 1299 cells (NCI-H1299) cultured within rat decellularized biomatrices; assay: Circulating cells in perfusion fluid of treated and untreated lung tissue constructs; type: cell-based; conditions: 50 μM Cisplatin from day 4 of culture, over the observed time period, untreated showed steady increase (FIG. 15)
Method: In some embodiments, the analyzing comprises determining the number of cells in the perfusion fluid used to perfuse a tissue construct as described herein. The number of cells in the perfusion fluid, also referred to as the number of circulating cells herein, can be used as an indicator for the metastatic properties of neoplastic cells cultured within the tissue construct. For example, in tissue constructs in which neoplastic cells are cultured within the interstitial space, and perfusion fluid is run through the vascular space, cells found in the perfusion fluid may stem from neoplastic cells that have migrated across the basement membrane separating the interstitial and the vascular space. Since the capability to migrate across the basement membrane and, thus, to enter into the blood stream, is a hallmark feature of metastasizing cancer cells, the ability to migrate across the basement membrane in a tissue construct is a biomarker useful for assessing metastatic capabilities of cells grown in tissue constructs provided herein. […] Treatment (Tx) with 50 μM Cisplatin was commenced at day 4 of culture, and treated tissue constructs and untreated controls were assessed and compared at days 4, 8, 11, and 14 of culture (FIGS. 11 and 12). […]

MMPs 1, 2, 7, 9, and 10 = assay: MMP secretion into perfusion fluid of treated and untreated lung tissue constructs; type: cell-based, human; conditions: 50 μM Cisplatin from day 4 of culture
Description: In some embodiments, the analyzing comprises an assessment of one or more molecules secreted into a perfusion fluid by the cells cultured within the tissue construct. For example, in a lung tissue construct, the analyzing may comprise detecting a protein, peptide, or nucleic acid in a perfusion fluid run through the pulmonary artery. In some embodiments, the secreted factor assessed is a secreted factor associated with cancer, or with a property of neoplastic cells, for example, with the metastatic capabilities of neoplastic cells. Secreted factors associated with cancer are known to those of skill in the art and include factors that are typically secreted by a tumor, such as growth factors and pro-angiogenic factors, as are factors associated with the metastatic capabilities of neoplastic cells. Metastasis-associated factors include, for example, matrix metalloproteases (MMPs, e.g., MMP-1, MMP-2, MMP-3, MMP-9, and MMP-10, as well as other MMPs). Tissue constructs were generated by culturing human 1299 cells, also known as NCI-H1299 or CRL-5803, a human non-small cell lung carcinoma cell line, within rat decellularized biomatrices. Treatment (Tx) with 50 μM Cisplatin was commenced at day 4 of culture, and treated tissue constructs and untreated controls were assessed and compared at days 4, 8, 11, and 14 of culture (FIGS. 11 and 12). […]

N.N.[Cl][Pt][Cl] [Cisplatin] was tested, and the “percentage of live cells” value ([1]; compared with non-treated constructs (FIG. 13)) was “dramatically decreased”, the Tumor size ([1]; compared with untreated constructs, days 4, 8, 11, 14 (FIG. 13)) was “dramatically decreased” and the Ki-67 expression [2] was “decreased in treated constructs”. For the same compound, the TUNEL staining [2] was “widespread apoptotic processes”, the “number of circulating cells” value [3] was “gradual decrease over the observed time period after initial rapid release of the circulating cells” and the “Levels of the assessed MMPs at the end of the observation period” value (MMPs 1, 2, 7, 9, and 10; end of the observation period (FIG. 16)) was “no detectable levels”. For the same compound, the “Levels of MMPs 1, 2, 7, 9, and 10 in perfusion fluid after start of treatment” value (MMPs 1, 2, 7, 9, and 10; untreated gradually increased over time (FIG. 16)) was “levels of all MMPs were diminished”.

From patent US20130344490A1, “NEOPLASTIC CELLS GROWN ON DECELLULARIZED BIOMATRIX” (priority 2012, published 2013)
